In patent US20220251092A1, “CASEIN KINASE 1EPSILON INHIBITOR, PHARMACEUTICAL COMPOSITION AND APPLICATION THEREOF” (HANGZHOU HEALZEN THERAPEUTICS CO., LTD., priority 2019, published 2022):
pIC50: −log10 of the molar value.

Columns and labels:
CK1ε = CK1ε (Homo sapiens, UniProt P49674); assay: CK1ε kinase activity assay (Caliper, FAM-labelled polypeptide); type: biochemical
Procedure: The in-vitro assay of inhibitory activity of the compound herein against CK1ε kinase was:
(1) preparation of 1× kinase basic buffer and stop buffer: • 1×kinase basic buffer: 50 mM HEPES, pH 7.5; and 0.0015% Brij-35; • stop buffer: 100 mM HEPES, pH 7.5; 0.015% Brij-35; 0.2% Coating Reagent #3; and 50 mM EDTA.
(2) preparation of the test compound: • a 50× (“n×” represents dilution factor, same hereafter) stock solution of the compound with DMSO (10 mM, DMSO) to obtain stock solution I for use; […] of stock solution I was placed in a 96-well plate, each compound sample was diluted by 5-fold serial dilution till 10 concentrations was obtained while ensuring 10 μl of drug solution in each well; meanwhile, 100 μl of DMSO was used as a blank control group and a negative control group without enzyme substrate; • a separate 96-well plate was prepared, and to 10 μl of the above compound,
90 μl of 1× kinase foundation buffer was added, mixed well for 10 min to obtain a mixture.

OCI-LY10 cells = assay: In-vitro anti-tumor activity, OCI-LY10 cells, CCK-8; type: cell-based, human; details: Homo sapiens; OCI-LY10, 72h, CCK-8; read-out: IC50
Procedure: The in-vitro anti-tumor activities of the synthesized compounds were determined using a diffuse large B-cell lymphoma (OCI-LY10) cell strain:
Drug preparation method: The drug was dissolved in DMSO to make a stock solution of 10 mM and diluted in a certain ratio to obtain 7 different concentrations (test concentration: 100×).
In vitro culture of tumor cells: The selected OCI-LY10 cells were incubated with a medium of IMDM+fetal bovine serum in a 5% CO2 cell culture incubator at 37° C., and were passaged when the cell density grew to 70-90% (adherent cells were passaged after digestion with Duck's EDTA) for later experiments as needed. Four thousand cells/200 μl/well were seeded in a 96-well plate and incubated overnight in a 5% CO2 cell incubator at 37° C. Two μl of the compounds were dispensed in each well at final concentrations of […], and incubation was performed together for 72h in a 5% CO2 cell incubator at 37° C. with DMSO (2%) as control. After 72h, 20 μl of CCK-8 solution was added and the plate was placed in a 5% CO2 cell culture incubator at 37° C. for 4h. Wells with the corresponding amounts of cell culture medium and CCK-8 solution but without cells were used as blank controls. The absorbance (OD values) was measured at 450 nm using an enzyme marker, and the obtained data were used to calculate the IC50.

OCI-LY10 xenograft tumor = assay: In vivo pharmacodynamic study, OCI-LY10 subcutaneous xenograft in SCID mice; parameters: species or system SCID mouse; details: Table 4; 100 mg/kg PO QD Day 0-38; combinations with 17a 6 mg/kg PO QD
Procedure: OCI-LY10 cells were cultured in an IMDM medium containing 20% FBS and maintained in a 5% CO2 incubator at 37° C. with saturated humidity. OCI-LY10 cells of logarithmic phase were collected and resuspended in an IMDM basic medium containing 50% Matrigel, and the cell concentration was adjusted to 5×10^7/ml. Subcutaneous inoculation of 0.1 ml of the cell suspension was performed aseptically in the right dorsum of mice at a concentration of 5×10^6/0.1 ml/mouse. Once the tumor volume reached about 150 mm^3, the animals were randomly grouped according to tumor volume so that the difference in tumor volume between the groups was less than 10% of the mean value. The date of grouping was recorded as Day 0, and drug administration was started based on the body weight of the animals. During drug administration, body weight of certain animals decreased by more than 15% compared to Day 0 (BWL≥15%), drug administration was discontinued for these animals until their body weight recovered (BWL<15%). The body weight and tumor volume of the animals were measured twice a week during the experiment, and clinical signs were observed and recorded daily.
The efficacy in terms of tumor volume was evaluated by the relative tumor proliferation rate T/C ratio, and T/C (%) was calculated as TRTV/CRTV[…], where TRTV is the relative tumor volume (RTV) of the treatment group and CRTV is the RTV of the negative control group. The RTV was calculated as Vt/V0, where V0 is the tumor volume at the time of grouping and Vt is the tumor volume at each measurement. The drug is considered effective with T/CP≤40% according to NMPA guidelines.
The efficacy in terms of tumor weight was evaluated by TGI (tumor weight inhibition) values, TGI 0%=(TWC−TWT)/TWC×[…], where TWC is tumor weight of control group, and TWT is tumor weight of treatment group. The drug is considered effective with TGI≥58% according to NIH guidelines.

CK1ε, sequence (P49674 whole entry): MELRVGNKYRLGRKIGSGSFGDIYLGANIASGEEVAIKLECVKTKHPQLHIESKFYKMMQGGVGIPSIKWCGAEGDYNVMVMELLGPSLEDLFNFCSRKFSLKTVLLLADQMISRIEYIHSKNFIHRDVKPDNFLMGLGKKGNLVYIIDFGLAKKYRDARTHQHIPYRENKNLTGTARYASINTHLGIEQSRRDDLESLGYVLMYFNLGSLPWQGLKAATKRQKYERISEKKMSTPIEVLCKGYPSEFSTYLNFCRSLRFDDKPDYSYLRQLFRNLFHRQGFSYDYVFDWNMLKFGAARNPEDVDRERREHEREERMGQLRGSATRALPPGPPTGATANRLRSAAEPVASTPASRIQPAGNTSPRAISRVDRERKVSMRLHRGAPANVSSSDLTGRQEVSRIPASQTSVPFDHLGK

Row | SMILES | pIC50 (CK1ε) | further results
1 | CC(C)Oc1ccc(-c2nn(C(C)c3nc4ccccc4c(=O)n3-c3ccccc3)c3ncnc(N)c23)cc1F (centres unmarked) [Compound A, reference compound] | 5.76 | –
2 | CC(c1nc2ccccc2c(=O)n1-c1ccccc1)n1nc(-c2ccc(OC3CC3)c(F)c2)c2c(N)ncnc21 (centres unmarked) [Compound B, reference compound] | 5.57 | –
3 | COc1ccc(-c2nn(C(C)c3nc4cccc(Cl)c4c(=O)n3-c3ccccc3)c3ncnc(N)c23)cc1F (centres unmarked) [Compound C, reference compound] | 6.15 | pIC50 (OCI-LY10 cells): 5.57
4 | CC(C)Oc1ccc(-c2nn(C(C)c3nc4cccc(F)c4c(=O)n3-c3ccccc3)c3ncnc(N)c23)cc1F (centres unmarked) [Compound D, reference compound] | 5.89 | pIC50 (OCI-LY10 cells): 6.13
5 | COc1ccc(-c2nn(C(C)c3nc4ccccc4c(=O)n3-c3ccccc3)c3ncnc(N)c23)c(F)c1F (centres unmarked) [II-A-1, 2-(1-(4-amino-3-(2,3-difluoro-4-methoxyphenyl)-1H-pyrazolo[3,4-d]pyrimidin-1-yl)ethyl)-3-phenylquinazolin-4(3H)-one] | 6.79 | pIC50 (OCI-LY10 cells): 6.85; RTV Day 39 (OCI-LY10 xenograft tumor): 2.45 ± 0.50; T/C (%) Day 39 (OCI-LY10 xenograft tumor): 35.40%; TGI (%) (OCI-LY10 xenograft tumor): 63.91%; Tumor weight (OCI-LY10 xenograft tumor): 0.288 ± 0.064 g
6 | COc1ccc(-c2nn([C@H](C)c3nc4ccccc4c(=O)n3-c3ccccc3)c3ncnc(N)c23)c(F)c1F [II-A-1b, (R)-2-(1-(4-amino-3-(2,3-difluoro-4-methoxyphenyl)-1H-pyrazolo[3,4-d]pyrimidin-1-yl)ethyl)-3-phenylquinazolin-4(3H)-one] | 6.32 | –
7 | CC(C)Oc1ccc(-c2nn(C(C)c3nc4ccccc4c(=O)n3-c3ccccc3)c3ncnc(N)c23)c(F)c1F (centres unmarked) [II-A-2, 2-(1-(4-amino-3-(2,3-difluoro-4-isopropoxyphenyl)-1H-pyrazolo[3,4-d]pyrimidin-1-yl)ethyl)-3-phenylquinazolin-4(3H)-one] | 6.84 | pIC50 (OCI-LY10 cells): 6.63; fold increase of inhibitory activity against CK1ε (CK1ε; compared to compound A): 12 fold
8 | CC(C)Oc1ccc(-c2nn([C@@H](C)c3nc4ccccc4c(=O)n3-c3ccccc3)c3ncnc(N)c23)c(F)c1F [II-A-2a, (S)-2-(1-(4-amino-3-(2,3-difluoro-4-isopropoxyphenyl)-1H-pyrazolo[3,4-d]pyrimidin-1-yl)ethyl)-3-phenylquinazolin-4(3H)-one] | 7.06 | –
9 | CC(C)Oc1ccc(-c2nn([C@H](C)c3nc4ccccc4c(=O)n3-c3ccccc3)c3ncnc(N)c23)c(F)c1F [II-A-2b, (R)-2-(1-(4-amino-3-(2,3-difluoro-4-isopropoxyphenyl)-1H-pyrazolo[3,4-d]pyrimidin-1-yl)ethyl)-3-phenylquinazolin-4(3H)-one] | 6.35 | –
10 | CCOc1ccc(-c2nn(C(C)c3nc4ccccc4c(=O)n3-c3ccccc3)c3ncnc(N)c23)c(F)c1F (centres unmarked) [II-A-3, 2-(1-(4-amino-3-(4-ethoxy-2,3-difluorophenyl)-1H-pyrazolo[3,4-d]pyrimidin-1-yl)ethyl)-3-phenylquinazolin-4(3H)-one] | 6.63 | –
11 | CC(c1nc2ccccc2c(=O)n1-c1ccccc1)n1nc(-c2ccc(OC3CC3)c(F)c2F)c2c(N)ncnc21 (centres unmarked) [II-A-4, 2-(1-(4-amino-3-(4-cyclopropoxy-2,3-difluorophenyl)-1H-pyrazolo[3,4-d]pyrimidin-1-yl)ethyl)-3-phenylquinazolin-4(3H)-one] | 6.63 | fold increase of inhibitory activity against CK1ε (CK1ε; compared to compound B): 12 fold
12 | COc1ccc(-c2nn(C(C)c3nc4ccccc4c(=O)n3-c3ccccc3)c3ncnc(N)c23)c(F)c1Cl (centres unmarked) [II-A-5, 2-(1-(4-amino-3-(3-chloro-2-fluoro-4-methoxyphenyl)-1H-pyrazolo[3,4-d]pyrimidin-1-yl)ethyl)-3-phenylquinazolin-4(3H)-one] | 6.41 | –
13 | COc1ccc(-c2nn(C(C)c3nc4cccc(F)c4c(=O)n3-c3ccccc3)c3ncnc(N)c23)c(F)c1F (centres unmarked) [II-A-8, 2-(1-(4-amino-3-(2,3-difluoro-4-methoxyphenyl)-1H-pyrazolo[3,4-d]pyrimidin−1-yl)ethyl)-5-fluoro-3-phenylquinazolin-4(3H)-one] | 6.93 | –
14 | COc1ccc(-c2nn([C@@H](C)c3nc4cccc(F)c4c(=O)n3-c3ccccc3)c3ncnc(N)c23)c(F)c1F [II-A-8a, (S)-2-(1-(4-amino-3-(2,3-difluoro-4-methoxyphenyl)-1H-pyrazolo[3,4-d]pyrimidin-1-yl)ethyl)-5-fluoro-3-phenylquinazolin-4(3H)-one] | 7.22 | –
15 | COc1ccc(-c2nn(C(C)c3nc4ccc(F)cc4c(=O)n3-c3ccccc3)c3ncnc(N)c23)c(F)c1F (centres unmarked) [II-A-9, 2-(1-(4-amino-3-(2,3-difluoro-4-methoxyphenyl)-1H-pyrazolo[3,4-d]pyrimidin-1-yl)ethyl)-6-fluoro-3-phenylquinazolin-4(3H)-one] | 7.00 | –
16 | COc1cc(F)c(-c2nn(C(C)c3nc4ccccc4c(=O)n3-c3ccccc3)c3ncnc(N)c23)c(F)c1 (centres unmarked) [II-A-12, 2-(1-(4-amino-3-(2,6-difluoro-4-methoxyphenyl)-1H-pyrazolo[3,4-d]pyrimidin-1-yl)ethyl)-3-phenylquinazolin-4(3H)-one] | 6.69 | –
17 | CC(C)Oc1ccc(-c2nn(C(C)c3nc4cccc(F)c4c(=O)n3-c3ccccc3)c3ncnc(N)c23)c(F)c1F (centres unmarked) [II-A-16, 2-(1-(4-amino-3-(2,3-difluoro-4-isopropoxyphenyl)-1H-pyrazolo[3,4-d]pyrimidin-1-yl)ethyl)-5-fluoro-3-phenylquinazolin-4(3H)-one] | 7.00 | fold increase of inhibitory activity against CK1ε (CK1ε; compared to CUX-031773): 93.6 fold; fold increase of inhibitory activity against CK1ε (CK1ε; compared to compound D): 12.9 fold
18 | COc1ccc(-c2nn(C(C)c3nc4cccc(Cl)c4c(=O)n3-c3cccnc3)c3ncnc(N)c23)c(F)c1F (centres unmarked) [II-B-2, 2-(1-(4-amino-3-(2,3-difluoro-4-methoxyphenyl)-1H-pyrazolo[3,4-d]pyrimidin-1-yl)ethyl)-5-chloro-3-(pyridin-3-yl)quinazolin-4(3H)-one] | 6.43 | pIC50 (OCI-LY10 cells): 6.71
19 | COc1ccc(-c2nn([C@@H](C)c3nc4cccc(Cl)c4c(=O)n3-c3cccnc3)c3ncnc(N)c23)c(F)c1F [II-B-2a, (S)-2-(1-(4-amino-3-(2,3-difluoro-4-methoxyphenyl)-1H-pyrazolo[3,4-d]pyrimidin-1-yl)ethyl)-5-chloro-3-(pyridin-3-yl)quinazolin-4(3H)-one] | 6.69 | –
20 | COc1ccc(-c2nn(C(C)c3nc4cccc(Cl)c4c(=O)n3-c3cncc(F)c3)c3ncnc(N)c23)c(F)c1F (centres unmarked) [II-B-3, 2-(1-(4-amino-3-(2,3-difluoro-4-methoxyphenyl)-1H-pyrazolo[3,4-d]pyrimidin-1-yl)ethyl)-5-chloro-3-(5-fluoropyridin-3-yl)quinazolin-4(3H)-one] | 7.05 | –
21 | COc1ccc(-c2nn(C(C)c3nc4cccc(Cl)c4c(=O)n3N3CCCCC3)c3ncnc(N)c23)c(F)c1F (centres unmarked) [II-C-5, 2-(1-(4-amino-3-(2,3-difluoro-4-methoxyphenyl)-1H-pyrazolo[3,4-d]pyrimidin-1-yl)ethyl)-5-chloro-3-(piperidin-1-yl)quinazolin-4(3H)-one] | 6.52 | pIC50 (OCI-LY10 cells): 6.51
